# Counter-ions that a name gives are not always drawn. Marks after values point to notes of the source that are not given here.
# Tests used:
# [1] = Example 8: adverse events; format: in vivo, human
# Method: There were no deaths or serious adverse events. No subjects discontinued because of adverse events. The majority of drug-related adverse events occurred when subjects were dosed with Talwin® Nx. These included nausea, vomiting, dizziness, and headache. One subject withdrew consent due to a schedule conflict.
# Eleven of 18 subjects experienced a total of 25 adverse events, none serious. Seven of these subjects experienced adverse events described as possibly, probably, or definitely related to the study medication. Overall, adverse events were more frequently reported in subjects receiving Talwin® Nx, consistent with expected adverse events related to pentazocine. All subjects recovered from all adverse events. No action (e.g., discontinuation) was taken with regard to the study drug.
# clinical [2] = settings: both, human, plasma, oral
# Method: Up to 96 subjects were to be enrolled in order to complete a minimum of 48 subjects who were evaluable for pharmacokinetics. […] Subjects successfully completing the Narcan® challenge were randomly assigned to 1 of 2 crossover treatment sequences (reference to test or test to reference) with a 5-day washout period separating dosing in the 2 periods. Subjects were confined to the study facility continuously from Day-1 until Day 10. […] All doses were administered with 8 ounces of water after an overnight fast (excluding water). […] Plasma concentrations of oxycodone and naloxone (as applicable) were determined, and pharmacokinetic metrics were calculated and analyzed. […] For the purpose of statistical analyses, Period 1 was defined as the time from administration of the first dose (Day 2) to just prior to administration of the second dose (Day 7). Period 2 was defined as the time from administration of the second dose (Day 7) to the time of the 72-hour postdose blood collection on Day 10.
# clinical [3] = settings: both, human, plasma; for AUC(0-t): AUCt; for AUC(0-t) / Cmax / Tmax: plasma naloxone
# Method: In Example 8, a single-center, open-label, randomized, 4-period, 4-sequence, 4-treatment crossover study in 18 normal, healthy, young adult, male and female subjects under fasted conditions was conducted. […] Subjects were randomly assigned to four sequences with periods consisting of the following: • Period 1 was Days 1-8 (from the time of the first dose until the time of the second dose), • Period 2 was Days 8-15 (from the time of the second dose until the third dose), • Period 3 was Days 15-22 (from the third dose until the fourth dose), and • Period 4 was Days 22 (from the time of the last dose until the end of the study).
# Dosing took place on Days 1, 8, 15, and 22. For the duration of the study, subjects were instructed not to engage in heavy exercise.
# Talwin® Nx was administered with 8 ounces of water, which the subjects drank completely. Afterwards, mouth inspections were done to ensure that each subject swallowed the tablet.
# Following the single oral dose of naloxone, subjects drank two additional 75 ml rinses of water, for a total volume of 225 ml. For divided doses (also 0.02 mg/ml), the first dose was followed by two 94 ml rinses of water, and subsequent doses were followed by two 75 ml rinses of water.
# Intravenous naloxone was administered by IV push. Following IV naloxone, subjects were observed by staff members continuously for at least 20 minutes.
# Each subject received each treatment one time. Each treatment followed an overnight fast (excluding water) of at least 10 hours, and after dosing, the subjects fasted for an additional 4 hours. Except for the days of dosings, there were no food restrictions. While subjects were confined to the clinical unit all meals were served at standardized times, and the content was standardized throughout the study and between subjects. Meal records were maintained, including content. No caffeine or xanthine-containing beverages were served while the subjects were in the clinical facility.
# [4] = conclusions of the study, treatment not named
# [5] = iv, 0.5 mg, 0.5 mg IV naloxone HCl, arithmetic mean (SD)
# [6] = po, 1.5 mg, 1.5 mg naloxone HCl oral divided doses, arithmetic mean (SD)
# [7] = po, 1.5 mg, 1.5 mg naloxone HCl single oral dose, 18 subjects, arithmetic mean (SD)
compound,measurement,setting,value
"C=CCN1CC[C@]23c4c5ccc(O)c4O[C@H]2C(=O)CC[C@@]3(O)[C@H]1C5 [Naloxone HCl, naloxone hydrochloride]","adverse events considered possibly, probably, or definitely related to study drug",[1]; 0.5 mg intravenous naloxone,nausea possibly related
same,"adverse events considered possibly, probably, or definitely related to study drug",[1]; 1.5 mg oral naloxone in divided doses,headache possibly related
same,tolerability,"[1]; given alone, total doses of 0.5 mg IV and up to 1.5 mg orally",well tolerated
same,adverse events during the naloxone challenge test,"[1]; intravenous challenge at screening, 18 subjects randomized",No adverse events were observed
same,"AUC0-∞, dose normalized","Dose Normalized to 0.5 mg IV Naloxone HCl dose, 0.5 mg IV arm, 15 subjects",3051 (668)^a pg · h/ml
same,Mean naloxone peak exposure,[4],8 pg/mL
same,"naloxone peak exposure, range",[4],0 to 16.6 pg/mL
same,Cmax,clinical [2],0.00213 ± 0.00447 ng/mL
same,Tmax,clinical [2],3.35 ± 3.69 h
same,half-life,clinical [2],4.3 ± 3.03 h
same,AUC(0-inf),"clinical [3]; iv, 0.5 mg",3.05 ng·h/mL
same,clearance,"clinical [3]; iv, 0.5 mg",2850 mL/min
same,AUC(0-t),"clinical [3]; iv, 0.5 mg, 0.5 mg IV naloxone HCl, fasted healthy subjects, arithmetic mean (SD)",3.2 ng·h/mL
same,Cmax,clinical [3]; [5],6.25 ng/mL
same,half-life,"clinical [3]; iv, 0.5 mg, t1/2, plasma naloxone, 0.5 mg IV naloxone HCl, 15 subjects, arithmetic mean (SD)",0.92 h
same,Tmax,clinical [3]; [5],0.14 h
same,AUC(0-t),"clinical [3]; po, 1.5 mg, 1.5 mg naloxone HCl oral divided doses (0, 3, 6, 9 h), arithmetic mean (SD)",0.0649 ng·h/mL
same,AUC(0-t),"clinical [3]; po, 1.5 mg, 1.5 mg naloxone HCl single oral dose (solution), 18 subjects, arithmetic mean (SD)",0.0474 ng·h/mL
same,Cmax,clinical [3]; [6],0.0134 ng/mL
same,Cmax,clinical [3]; [7],0.023 ng/mL
same,bioavailability,"clinical [3]; po, 1.5 mg, F (%) absolute bioavailability, 1.5 mg naloxone HCl oral divided doses, based on AUCt, mean (SD)",0.66%
same,bioavailability,"clinical [3]; po, 1.5 mg, F (%) absolute bioavailability, 1.5 mg naloxone HCl single oral dose, based on AUCt, mean (SD)",0.47%
same,Tmax,clinical [3]; [6],3.18 h
same,Tmax,clinical [3]; [7],0.78 h
same,bioavailability,"clinical [3]; po, absolute bioavailability of naloxone, all three oral treatments studied",< 1%
